The results in this text go back to US12187709B2 (Genentech, Inc., priority 2021, dated 2025).

The target of assay [1] is c-Cbl (Homo sapiens (Human), UniProt P22681). Briefly: C-Cbl LCK Ub TR-FRET assay (C-cbl Lck HTRF). Type of assay: biochemical. An outline of the steps: (§1)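 Signal is read once the detection mix has stood 20 min at ambient temperature. Curves are anchored by DMSO as maximum and by omission of LCK as minimum.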
Assay [2] addresses Cbl-b (Homo sapiens (Human), UniProt Q13191). Description: Cbl-b LCK Ub TR-FRET assay (Cbl-b Lck HTRF). In kind it is biochemical. The note with it: for IC50: Cbl-b LCK Ub TR-FRET. An outline of the steps: as §1
Setting [3] is: ratio C-cbl Lck HTRF IC50 / Cbl-b Lck HTRF IC50.

One may read the IC50 as the concentration that gives 50% inhibition. A low value points to greater potency in that assay.

Cbl-b, sequence (Q13191 40-426): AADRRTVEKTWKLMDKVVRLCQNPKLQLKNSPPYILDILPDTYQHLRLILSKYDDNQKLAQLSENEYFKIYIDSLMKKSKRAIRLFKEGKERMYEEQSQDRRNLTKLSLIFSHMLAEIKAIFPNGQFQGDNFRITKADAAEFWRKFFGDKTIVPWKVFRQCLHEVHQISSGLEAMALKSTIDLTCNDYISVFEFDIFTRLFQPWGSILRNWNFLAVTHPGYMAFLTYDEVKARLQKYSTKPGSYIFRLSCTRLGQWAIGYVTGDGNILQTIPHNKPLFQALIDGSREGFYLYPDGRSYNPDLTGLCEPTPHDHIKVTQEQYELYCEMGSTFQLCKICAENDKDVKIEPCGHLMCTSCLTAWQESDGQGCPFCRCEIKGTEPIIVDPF
c-Cbl, sequence (P22681 47-435): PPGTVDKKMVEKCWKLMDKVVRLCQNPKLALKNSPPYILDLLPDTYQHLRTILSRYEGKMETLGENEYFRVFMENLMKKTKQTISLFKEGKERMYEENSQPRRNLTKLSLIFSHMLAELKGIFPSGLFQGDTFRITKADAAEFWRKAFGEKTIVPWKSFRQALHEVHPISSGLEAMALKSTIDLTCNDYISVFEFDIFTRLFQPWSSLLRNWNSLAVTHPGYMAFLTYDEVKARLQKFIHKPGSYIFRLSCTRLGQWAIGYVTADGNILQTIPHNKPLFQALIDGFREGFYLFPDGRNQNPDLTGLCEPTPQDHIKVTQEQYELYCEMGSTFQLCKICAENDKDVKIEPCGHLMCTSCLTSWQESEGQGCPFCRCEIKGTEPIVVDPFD

Regarding `Cn1cnnc1[C@@H](CC1CCC1)c1cccc(N2Cc3c(cc(CNC4(C)CCC4)cc3C(F)(F)F)C2=O)c1` [Compound 269, (S)-2-(3-(2-cyclobutyl-1-(4-methyl-4H-1,2,4-triazol-3-yl)ethyl)phenyl)-6-(((1-methylcyclobutyl)amino)methyl)-4-(trifluoromethyl)isoindolin-1-one], the 50% inhibitory concentration (IC50) turned out to be 0.3 µM in assay [1] and 0.076 µM in assay [2]. Moreover, in assay [2] (setting [3]), the “fold-selectivity (Cbl-b over C-cbl)” value is on record as 4.0x.

For `Cn1cnnc1[C@H](C[C@@H]1CCOC1)c1cccc(N2Cc3c(cc(CNC4(C)CCC4)cc3C(F)(F)F)C2=O)c1` [Compound 275, 2-(3-((R)-1-(4-methyl-4H-1,2,4-triazol-3-yl)-2-((R)-tetrahydrofuran-3-yl)ethyl)phenyl)-6-(((1-methylcyclobutyl)amino)methyl)-4-(trifluoromethyl)isoindolin-1-one], the IC50 in assay [1] is 20 µM; in assay [2], no less than 20 µM. Further, the “fold-selectivity (Cbl-b over C-cbl)” value in assay [2] (setting [3]) worked out at 1.0x.

On to `Cn1cnnc1[C@@H](C[C@@H]1CCOC1)c1cccc(N2Cc3c(cc(CNC4(C)CCC4)cc3C(F)(F)F)C2=O)c1` [Compound 276, 2-(3-((S)-1-(4-methyl-4H-1,2,4-triazol-3-yl)-2-((R)-tetrahydrofuran-3-yl)ethyl)phenyl)-6-(((1-methylcyclobutyl)amino)methyl)-4-(trifluoromethyl)isoindolin-1-one], for which the IC50 in assay [1] was 20 µM; in assay [2], no less than 20 µM. Also, in assay [2] (setting [3]), the “fold-selectivity (Cbl-b over C-cbl)” value was determined as 1.0x.

`C[C@@H](NC1(C)CCC1)c1cc2c(c(C(F)(F)F)c1)CN(c1cccc(C(c3nncn3C)C3COC3)c1)C2=O` (stereo partly drawn) [Compound 284, 2-(3-((4-methyl-4H-1,2,4-triazol-3-yl)(oxetan-3-yl)methyl)phenyl)-6-((R)-1-((1-methylcyclobutyl)amino)ethyl)-4-(trifluoromethyl)isoindolin-1-one]: the IC50 in assay [1] was determined as 3.7 µM; in assay [2], 0.51 µM. The “fold-selectivity (Cbl-b over C-cbl)” value in assay [2] (setting [3]) is 7.3x.

Turning to `Cn1cnnc1[C@H](CC1CCS(=O)(=O)CC1)c1cccc(N2Cc3c(cc(CNC4(C)CCC4)cc3C(F)(F)F)C2=O)c1` [Compound 286, (R)-2-(3-(2-(1,1-dioxidotetrahydro-2H-thiopyran-4-yl)-1-(4-methyl-4H-1,2,4-triazol-3-yl)ethyl)phenyl)-6-(((1-methylcyclobutyl)amino)methyl)-4-(trifluoromethyl)isoindolin-1-one], the concentration for half-maximal inhibition (IC50) in assay [1] is 20 µM; in assay [2], no less than 20 µM. The “fold-selectivity (Cbl-b over C-cbl)” value in assay [2] (setting [3]) turned out to be 1.0x.

`Cn1cnnc1[C@@H](CC1CCS(=O)(=O)CC1)c1cccc(N2Cc3c(cc(CNC4(C)CCC4)cc3C(F)(F)F)C2=O)c1` [Compound 287, (S)-2-(3-(2-(1,1-dioxidotetrahydro-2H-thiopyran-4-yl)-1-(4-methyl-4H-1,2,4-triazol-3-yl)ethyl)phenyl)-6-(((1-methylcyclobutyl)amino)methyl)-4-(trifluoromethyl)isoindolin-1-one]: the IC50 in assay [1] was 20 µM; in assay [2], no less than 20 µM. In addition, the “fold-selectivity (Cbl-b over C-cbl)” value in assay [2] (setting [3]) worked out at 1.0x.

As to `Cn1cnnc1[C@@H](c1cccc(N2Cc3c(cc(CNC4(C)CCC4)cc3C(F)(F)F)C2=O)c1)C1CCOCC1` [Compound 290, (R)-2-(3-((4-methyl-4H-1,2,4-triazol-3-yl)(tetrahydro-2H-pyran-4-yl)methyl)phenyl)-6-(((1-methylcyclobutyl)amino)methyl)-4-(trifluoromethyl)isoindolin-1-one], the 50% inhibitory concentration (IC50) in assay [1] was 20 µM; in assay [2] it was 13 µM. In assay [2] (setting [3]), the “fold-selectivity (Cbl-b over C-cbl)” value was 1.5x.

With `Cn1cnnc1[C@@H](C[C@@H]1COCCO1)c1cccc(N2Cc3c(cc(CNC4(C)CCC4)cc3C(F)(F)F)C2=O)c1` [Compound 296, 2-(3-((S)-2-((R)-1,4-dioxan-2-yl)-1-(4-methyl-4H-1,2,4-triazol-3-yl)ethyl)phenyl)-6-(((1-methylcyclobutyl)amino)methyl)-4-(trifluoromethyl)isoindolin-1-one], the results for the IC50 in assay [1] and in assay [2] were 16 µM and 8 µM, respectively. For the same compound, the “fold-selectivity (Cbl-b over C-cbl)” value in assay [2] (setting [3]) was 2.0x.

Take `Cn1cnnc1[C@@H](c1cccc(N2Cc3c(cc(CNC4(C)CCC4)cc3C(F)(F)F)C2=O)c1)C1CCS(=O)(=O)CC1` [Compound 299, (R)-2-(3-((1,1-dioxidotetrahydro-2H-thiopyran-4-yl)(4-methyl-4H-1,2,4-triazol-3-yl)methyl)phenyl)-6-(((1-methylcyclobutyl)amino)methyl)-4-(trifluoromethyl)isoindolin-1-one]: the results for the IC50 in assay [1] and in assay [2] were 3.8 µM and 2.5 µM, respectively. In addition, the “fold-selectivity (Cbl-b over C-cbl)” value in assay [2] (setting [3]) is recorded as 1.5x.

Consider `Cn1cnnc1[C@H](c1cccc(N2Cc3c(cc(CNC4(C)CCC4)cc3C(F)(F)F)C2=O)c1)C1CCS(=O)(=O)CC1` [Compound 300, (S)-2-(3-((1,1-dioxidotetrahydro-2H-thiopyran-4-yl)(4-methyl-4H-1,2,4-triazol-3-yl)methyl)phenyl)-6-(((1-methylcyclobutyl)amino)methyl)-4-(trifluoromethyl)isoindolin-1-one], for which the IC50 in assay [1] stood at 17 µM; in assay [2], 8.7 µM. Besides, the “fold-selectivity (Cbl-b over C-cbl)” value in assay [2] (setting [3]) was determined as 2.0x.

As for `Cn1cnnc1[C@H](c1cccc(N2Cc3c(cc(CNC4(C)CCC4)cc3C(F)F)C2=O)c1)C1COC1` [Compound 304, (S)-4-(difluoromethyl)-2-(3-((4-methyl-4H-1,2,4-triazol-3-yl)(oxetan-3-yl)methyl)phenyl)-6-(((1-methylcyclobutyl)amino)methyl)isoindolin-1-one], the 50% inhibitory concentration (IC50) was 20 µM in assay [1] and 7.8 µM in assay [2]. The “fold-selectivity (Cbl-b over C-cbl)” value in assay [2] (setting [3]) worked out at 2.6x.

For `Cn1cnnc1[C@](C)(O)c1cccc(N2Cc3c(cc(CNC4(C)CCC4)cc3C(F)(F)F)C2=O)c1` [Compound 305, (R)-2-(3-(1-hydroxy-1-(4-methyl-4H-1,2,4-triazol-3-yl)ethyl)phenyl)-6-(((1-methylcyclobutyl)amino)methyl)-4-(trifluoromethyl)isoindolin-1-one], the figures for the IC50 in assay [1] and in assay [2] were 20 µM and no less than 20 µM, respectively. For the same compound, the “fold-selectivity (Cbl-b over C-cbl)” value in assay [2] (setting [3]) is given as 1.0x.

Take `Cn1cnnc1[C@](O)(c1cccc(N2Cc3c(cc(CNC4(C)CCC4)cc3C(F)(F)F)C2=O)c1)C(F)(F)F` [Compound 307, (R)-6-(((1-methylcyclobutyl)amino)methyl)-2-(3-(2,2,2-trifluoro-1-hydroxy-1-(4-methyl-4H-1,2,4-triazol-3-yl)ethyl)phenyl)-4-(trifluoromethyl)isoindolin-1-one]: the IC50 was 12 µM in assay [1] and 7.6 µM in assay [2]. In addition, the “fold-selectivity (Cbl-b over C-cbl)” value in assay [2] (setting [3]) amounted to 1.5x.

Turning to `CC(C)[C@@](O)(c1cccc(N2Cc3c(cc(CNC4(C)CCC4)cc3C(F)(F)F)C2=O)c1)c1nncn1C` [Compound 309, (R)-2-(3-(1-hydroxy-2-methyl-1-(4-methyl-4H-1,2,4-triazol-3-yl)propyl)phenyl)-6-(((1-methylcyclobutyl)amino)methyl)-4-(trifluoromethyl)isoindolin-1-one], the figures for the half-inhibitory concentration (IC50) in assay [1] and in assay [2] were 20 µM and 5.3 µM, respectively. In addition, in assay [2] (setting [3]), the “fold-selectivity (Cbl-b over C-cbl)” value is given as 3.8x.

On to `CC[C@H](NC1(C)CCC1)c1cc2c(c(C(F)(F)F)c1)CN(c1cccc([C@@H](c3nncn3C)C3COC3)c1)C2=O` [Compound 315, 2-(3-((S)-(4-methyl-4H-1,2,4-triazol-3-yl)(oxetan-3-yl)methyl)phenyl)-6-((S)-1-((1-methylcyclobutyl)amino)propyl)-4-(trifluoromethyl)isoindolin-1-one], for which the IC50 in assay [1] stood at 20 µM; in assay [2], 6.8 µM. The “fold-selectivity (Cbl-b over C-cbl)” value in assay [2] (setting [3]) is on record as 2.0x.

In the case of `Cn1cnnc1[C@]1(c2cccc(N3Cc4c(cc(CNC5(C)CCC5)cc4C(F)(F)F)C3=O)c2)C[C@@H](S(C)(=O)=O)C1` [Compound 325, 2-(3-((1r,3r)-1-(4-methyl-4H-1,2,4-triazol-3-yl)-3-(methylsulfonyl)cyclobutyl)phenyl)-6-(((1-methylcyclobutyl)amino)methyl)-4-(trifluoromethyl)isoindolin-1-one], the results for the IC50 in assay [1] and in assay [2] were 20 µM and 11 µM, respectively. In assay [2] (setting [3]), the “fold-selectivity (Cbl-b over C-cbl)” value is 1.9x.

Regarding `Cn1cnnc1[C@]1(c2cccc(N3Cc4c(cc(CNC5(C)CCC5)cc4C(F)(F)F)C3=O)c2)C[C@H](S(C)(=O)=O)C1` [Compound 326, 2-(3-((1s,3s)-1-(4-methyl-4H-1,2,4-triazol-3-yl)-3-(methylsulfonyl)cyclobutyl)phenyl)-6-(((1-methylcyclobutyl)amino)methyl)-4-(trifluoromethyl)isoindolin-1-one], the results for the IC50 in assay [1] and in assay [2] were 20 µM and 16 µM, respectively. Moreover, in assay [2] (setting [3]), the “fold-selectivity (Cbl-b over C-cbl)” value was determined as 1.2x.

On to `Cn1cnnc1[C@]1(c2cccc(N3Cc4c(cc(CNC5(C)CCC5)cc4C(F)(F)F)C3=O)c2)C[C@H](OC(F)(F)F)C1` [Compound 350, 2-(3-((1s,3s)-1-(4-methyl-4H-1,2,4-triazol-3-yl)-3-(trifluoromethoxy)cyclobutyl)phenyl)-6-(((1 methylcyclobutyl)amino)methyl)-4-(trifluoromethyl)isoindolin-1-one], for which the IC50 came out at 0.077 µM in assay [1] and 0.016 µM in assay [2]. In addition, the “fold-selectivity (Cbl-b over C-cbl)” value in assay [2] (setting [3]) is 4.8x.

As to `CO[C@H]1C[C@](c2cccc(N3Cc4c(cc(CN5CCCCC5)cc4C(F)(F)F)C3=O)c2)(c2nncn2C)C1` [Compound 420, 2-(3-((1r,3r)-3-methoxy-1-(4-methyl-4H-1,2,4-triazol-3-yl)cyclobutyl)phenyl)-6-(piperidin-1-ylmethyl)-4-(trifluoromethyl)isoindolin-1-one], the IC50 worked out at 0.72 µM in assay [1] and 0.1 µM in assay [2] (Example 121). Besides, the “(fold-selectivity) Cbl-b and C-Cbl Selectivity” value in assay [2] (setting [3]) was 7.2x.
